The values that follow come from patent publication US5618829A, “Tyrosine kinase inhibitors and benzoylacrylamide derivatives” (Mitsubishi Chemical Corporation, priority 1993, dated 1997).

T1 sequence (P00533 25-1210): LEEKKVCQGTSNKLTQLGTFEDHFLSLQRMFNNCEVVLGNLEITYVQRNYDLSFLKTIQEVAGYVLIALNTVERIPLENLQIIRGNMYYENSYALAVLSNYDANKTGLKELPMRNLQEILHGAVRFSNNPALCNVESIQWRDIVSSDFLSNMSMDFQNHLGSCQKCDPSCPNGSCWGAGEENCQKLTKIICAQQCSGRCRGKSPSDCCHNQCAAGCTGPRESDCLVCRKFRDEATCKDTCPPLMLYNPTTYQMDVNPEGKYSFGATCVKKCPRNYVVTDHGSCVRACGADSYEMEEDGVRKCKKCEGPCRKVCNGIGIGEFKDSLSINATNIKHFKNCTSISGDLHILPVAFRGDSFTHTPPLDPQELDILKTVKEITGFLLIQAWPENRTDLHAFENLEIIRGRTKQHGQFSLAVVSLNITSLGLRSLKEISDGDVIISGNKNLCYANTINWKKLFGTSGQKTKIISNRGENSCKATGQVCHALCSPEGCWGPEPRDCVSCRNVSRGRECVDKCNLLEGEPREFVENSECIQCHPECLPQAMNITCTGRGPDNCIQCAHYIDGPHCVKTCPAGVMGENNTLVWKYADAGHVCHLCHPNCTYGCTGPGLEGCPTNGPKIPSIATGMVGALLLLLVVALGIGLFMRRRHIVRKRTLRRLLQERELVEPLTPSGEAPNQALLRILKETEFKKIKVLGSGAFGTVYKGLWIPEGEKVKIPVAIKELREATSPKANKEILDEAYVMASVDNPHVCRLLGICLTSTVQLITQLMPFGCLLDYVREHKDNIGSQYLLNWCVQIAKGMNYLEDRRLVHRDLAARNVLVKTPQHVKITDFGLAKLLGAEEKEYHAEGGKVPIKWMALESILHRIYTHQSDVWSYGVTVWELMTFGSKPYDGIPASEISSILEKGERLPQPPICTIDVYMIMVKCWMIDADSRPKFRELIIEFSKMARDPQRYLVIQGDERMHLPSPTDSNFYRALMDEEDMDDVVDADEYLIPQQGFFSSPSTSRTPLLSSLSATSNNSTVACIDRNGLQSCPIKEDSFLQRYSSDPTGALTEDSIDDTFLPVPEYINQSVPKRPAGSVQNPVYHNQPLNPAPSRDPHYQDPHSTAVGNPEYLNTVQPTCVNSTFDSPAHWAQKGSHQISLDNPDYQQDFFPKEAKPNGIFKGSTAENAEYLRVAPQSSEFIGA

The first assay concerns the target T1, EGF receptor (Homo sapiens, UniProt P00533).
T1 construct: The cell membrane fraction, a partially purified EGF receptor, was used as an enzyme source; endogenous in cells; host or cells: A431 (human epidermoid carcinoma), cell membrane fraction
Description: Tyrosine kinase inhibitory activity (partially purified EGF receptor from A431 cell membrane fraction, RR-SRC peptide substrate). In kind it is biochemical. Particulars: partially purified EGF receptor from A431 cells, 100 ng EGF, 10 μM γ-32P-ATP, 30 minutes under ice-cooling. As for the experimental part:
(§1) The compounds of the invention were evaluated their tyrosine kinase inhibitory activities with partially purified EGF (epidermal cell growth factor) receptor preparation and cell growth inhibitory activity with human cancer cells.
Tyrosine Kinase Inhibitory Activity
Tyrosine kinase inhibitory activities of the compounds of the invention were determined as the inhibitory activities of the compounds added into the tyrosine kinase activity assay system.
The method employed is detailed below.
A431 cells were cultured in Dulbecco's modified Eagles medium (DMEM) containing 10% fetal calf serum (FCS) at 37° C. under 5% CO2 atmosphere. The cultured cells were homogenated in a solution containing 10 mM N-2-hydroxyethylpiperazino-N'-2-ethane sulfonate buffer (pH 7.4), 0.25M sucrose, and 0.1 mM EDTA, and centrifuged at 3000 xg for 5 minutes. The supernatant was then centrifuged at 10000 xg for 30 minutes to obtain A431 cell membrane fraction. The cell membrane fraction, a partially purified EGF receptor, was used as an enzyme source. A test compound dissolved in dimethylsulfoxide (DMSO) was added to a reaction mixture containing 15 mM Hepes buffer (pH 7.7), 2 mM MnCl2, 10 μM ZnSO4, 50 μM Na3 VO4 and the partially purified EGF receptor preparation (10-15 μg). […] The mixture was allowed to react under […] for 30 minutes, and the reaction was stopped by addition of 10 mg/ml bovine serum albumin and 20% trichloroacetic acid. The reaction mixture was left to stand under ice-cooling for 30 minutes. The mixture was centrifuged at 5000 xg for two minutes, and an aliquot of the supernatant was adsorbed on P81 phosphocellulose filter. The filter was dipped in 30% aqueous acetic acid for 15 minutes for fixation and then washed with 15% acetic acid. The washing was repeated four times. The radioactivity of ^32 P retained on the phosphocellulose filter was counted with liquid scintillation counter.
Tyrosine kinase inhibitory activity (TKIA) was determined according to the following equation:
TKIA(%)={1-(B-C)/(A-C)}×100
The sympols "A", "B" and "C" represent the radioactivities determined in tyrosine kinase assays with test compounds, without a test compound, and without both a test compound and EGF, respectively.
As a reminder, the IC50 is the concentration needed to halve the response being measured. In turn, `COc1ccc(C(=O)/C=C/C(N)=O)cc1OC` [Compound 2] registered an IC50 of 0.32 µM.
Still for that read-out and setting: the same measure for `COc1ccc(C(=O)/C=C/C(=O)NCc2ccccc2)cc1OC` [Compound 19]: 0.79 µM; for `COc1ccc(C(=O)/C=C/C(=O)NC2CCCCC2)cc1OC` [Compound 45]: 1 µM; for `COc1ccc(C(=O)/C=C/C(=O)Nc2ccccc2)cc1` [Compound 58]: 2.2 µM.
Take `COc1ccc(C(=O)/C=C/C(=O)Nc2ccccc2)cc1OC` [Compound 59]: the IC50 was determined as 0.54 µM.
Still for that read-out and setting: the same measure for `O=C(/C=C/C(=O)c1ccc(O)c(O)c1)Nc1ccccc1` [Compound 60]: 1 µM; for `COc1cc(C(=O)/C=C/C(=O)Nc2ccccc2)ccc1O` [Compound 61]: 1.5 µM.
Consider `COc1cc(C(=O)/C=C/C(=O)Nc2ccccc2)ccc1OC(F)F` [Compound 64], for which half-maximal inhibition (IC50) required 1.5 µM.
`COc1cc(C(=O)/C=C/C(=O)Nc2ccccc2)ccc1OCc1ccccc1` [Compound 67]: half-maximal inhibition (IC50) required 13 µM.
For the compound `COc1ccc(C(=O)/C=C/C(=O)Nc2ccccc2Cl)cc1OC` [Compound 71], the IC50 is 1.2 µM.
On the same count and under the same terms, the same measure for `COc1ccc(C(=O)/C=C/C(=O)Nc2cccc(Cl)c2)cc1OC` [Compound 74]: 0.76 µM.
Still for that read-out and setting: the same measure for `O=C(/C=C/C(=O)c1ccc(O)c(O)c1)Nc1cccc(Cl)c1` [Compound 75]: 4.3 µM; for `COc1ccc(C(=O)/C=C/C(=O)Nc2cccc(C)c2)cc1OC` [Compound 83]: 0.81 µM; for `COc1ccc(C(=O)/C=C/C(=O)NC(=O)c2ccccc2)cc1OC` [Compound 110]: 0.91 µM.

The subject of the next assay is KB cell. In words: Cancer cell growth inhibitory activity (KB cells, MTT). The assay is classed as cell-based. Conditions: Homo sapiens, 72 h; KB cells; three days; 37° C.; MTT; read-out: Inhibitory activity (IC50, μM) Cancer cell growth. The procedure:
as §1
Cancer Cell Growth Inhibitory Activity
Accordingly, the KB cell was used to evaluate the effect of test compounds on the growth of cultured cancer cells.
KB cells were plated on a 96-well dish (2.5×10^3 cell/well) and cultured for 24 hours at 37° C. under 5% CO2 atmosphere in DMEM:F12 (1:1) medium containing 10% FCS, 50 μg/ml penicillin, and 50 μg/ml streptomycin. To the culture medium was added a test compound dissolved in DMSO (DMSO final concentration<0.1%), and the cells were cultured for three days under the same conditions. The test compound was exchanged every 24 hours together with the culture medium.
The amount of living cells were measured by calorimetric determination at wave lengths of 550 nm and 650 nm after developing colour by MTT reagent, in accordance with the method of Michael C.
Cancer cell growth inhibitory activity (CCGIA) was determined according to the following equation.
Simbols "a" and "b" represent the colorimetric values determined in the cancer cell growth assay with and without the test compounds, respectively.
Take `COc1cc(C(=O)/C=C/C(=O)Nc2ccccc2)ccc1O` [Compound 61]: the IC50 turned out to be 2 µM.
With `COc1ccc(C(=O)/C=C/C(=O)Nc2cccc(Cl)c2)cc1OC` [Compound 74], the IC50 was determined as 0.7 µM.

The same assay, now with this note: Homo sapiens, KB, 72 h, read-out: Inhibitory activity (IC50, μM) Cancer cell growth.
Consider `COc1ccc(C(=O)/C=C/C(N)=O)cc1OC` [Compound 2], for which the IC50 came to 0.92 µM.
Consider `COc1ccc(C(=O)/C=C/C(=O)NCc2ccccc2)cc1OC` [Compound 19], for which the half-inhibitory concentration (IC50) is 0.97 µM.
The same measure, in the same setting: the same measure for `COc1ccc(C(=O)/C=C/C(=O)NC2CCCCC2)cc1OC` [Compound 45]: 0.22 µM; for `COc1ccc(C(=O)/C=C/C(=O)Nc2ccccc2)cc1` [Compound 58]: 0.34 µM; for `COc1ccc(C(=O)/C=C/C(=O)Nc2ccccc2)cc1OC` [Compound 59]: 0.45 µM.
Same read-out and setting: the same measure for `O=C(/C=C/C(=O)c1ccc(O)c(O)c1)Nc1ccccc1` [Compound 60]: 1.85 µM; for `COc1cc(C(=O)/C=C/C(=O)Nc2ccccc2)ccc1OC(F)F` [Compound 64]: 1.1 µM.
The same measure, in the same setting: the same measure for `COc1cc(C(=O)/C=C/C(=O)Nc2ccccc2)ccc1OCc1ccccc1` [Compound 67]: 0.58 µM; for `COc1ccc(C(=O)/C=C/C(=O)Nc2ccccc2Cl)cc1OC` [Compound 71]: 1.2 µM; for `O=C(/C=C/C(=O)c1ccc(O)c(O)c1)Nc1cccc(Cl)c1` [Compound 75]: 1.25 µM.
In the case of `COc1ccc(C(=O)/C=C/C(=O)Nc2cccc(C)c2)cc1OC` [Compound 83], the IC50 is 0.95 µM.
Same read-out and setting: the same measure for `COc1ccc(C(=O)/C=C/C(=O)NC(=O)c2ccccc2)cc1OC` [Compound 110]: 11.5 µM.
